Several values for one entry are separate records, joined by “and”; a condition that tells them apart may be missing. Identical values can stand only once. Entries after “also recorded” stand apart in the source; their conditions may differ.
Legend:
NSC34 cells = experiment: Wst-1 cell viability assay after H2O2 + TNFα stress, motor neuron cell line; assay type: cell-based, mouse
Procedure: (§1) Pharma Inc.) were added to the growth medium. […] NPD1, or Compound 1 in Table 1, was analyzed for activity in NCS34 cells, a mouse motor neuron cell line. […] Treatment with H2O2 and 10 ng/ml TNFα caused between 26-37% cell death in the motor neurons (FIG. 1).

[1] = as above; assay type: cell-based, mouse; settings: mouse; NPD 100 nM alone, 24 hrs incub., control (veh.) = 100
Procedure: as §1

C8-D1A cells = experiment: Wst-1 cell viability assay after H2O2 + TNFα stress, astrocyte cell line
Description: It is well-known in the art that inflammation and oxidative stress are significant contributors to neurodegeneration. H2O2 is commonly used in experiments to simulate oxidate stress. […] Accordingly, in this in vitro assay, TNF-alpha and hydrogen peroxide (H2O2) were used as stressors to induce cell death to model ALS.
Cell viability after treatment with H2O2 and TNFα was examined in NCS34 cells, a mouse motor neuron cell line, and in C8-D1A cells, a mouse astrocyte cell line (from the American Type Tissue Culture Collection). The protocol for assessing the activity of any of the compounds disclosed herein in cultured cells is as follows:
Day 1: Cells were plated into 96 well plates at a confluency of 60%. Cells were maintained in growth medium consisting of Dulbecco's Modified Essential Medium (DMEM, LifeTechnologies Inc.) supplemented with 10% fetal bovine serum (Hyclone) and incubated in a tissue culture incubator at 37° C., 95% […] and 5% CO2.
Day 2: The growth medium was changed to 200 μl/well DMEM without fetal bovine serum. Additional agents, such as varying concentrations of H2O2 (Sigma Aldrich Inc.), TNFalpha, and a vehicle control or any of the compounds disclosed herein, e.g., NPD1 (Anida Pharma Inc.) were added to the growth medium. The cells were incubated overnight for 24 hours in a tissue culture incubator at 37° C., 95% […] and 5% CO2
Day 3: After 24 hours, 20 μl of Wst-1 cell viability reagent (Roche Applied Sciences Inc.) was added to each well (1:10 dilution in growth medium). Mix well by gently rocking the plate side-to-side. The cells were incubated at 37° C. for 60 minutes. […] A background control (or blank) for the growth medium and WST-1 reagent (without cells) can also be measured. The 630 nm background absorbance values are then subtracted from the 450 nm measurement for a normalized 450 nm absorbance value.
NPD1 activity was analyzed in C8-D1A cells, a mouse astrocyte cell line (American Type Tissue Culture Collection). C8-D1A cells were treated with increasing concentrations of H2O2 (1 μM, 10 μM, 50 μM, 100 μM, 400 μM and 800 μM) and 10 ng/ml TNFα without NPD1, or with 50 nM or 100 nM NPD1 for 24 hours. Cell viability was determined by Wst-1 cell viability assay, as described in Example 1. Each sample was performed in triplicate.

[2] = NPD 100 nM + TNFa 10 ng/ml + H2O2 1 uM, 24 hrs
[3] = NPD 100 nM + TNFa 10 ng/ml + H2O2 10 uM, 24 hrs
[4] = NPD 100 nM + TNFa 10 ng/ml + H2O2 50 uM, 24 hrs
[5] = NPD 100 nM + TNFa 10 ng/ml + H2O2 100 uM, 24 hrs
[6] = NPD 100 nM + TNFa 10 ng/ml + H2O2 400 uM, 24 hrs
[7] = NPD 100 nM + TNFa 10 ng/ml + H2O2 800 uM, 24 hrs
[8] = 0 uM H2O2 + 10 ng/ml TNFa, 50 nM NPD1, 24 hours
[9] = 0 uM H2O2 + 10 ng/ml TNFa, 100 nM NPD1, 24 hours
[10] = 25 uM H2O2 + 10 ng/ml TNFa, 50 nM NPD1, 24 hours
[11] = 25 uM H2O2 + 10 ng/ml TNFa, 100 nM NPD1, 24 hours
[12] = 50 uM H2O2 + 10 ng/ml TNFa, 50 nM NPD1, 24 hours
[13] = 50 uM H2O2 + 10 ng/ml TNFa, 100 nM NPD1, 24 hours
[14] = 100 uM H2O2 + 10 ng/ml TNFa, 50 nM NPD1, 24 hours
[15] = 100 uM H2O2 + 10 ng/ml TNFa, 100 nM NPD1, 24 hours
[16] = 200 uM H2O2 + 10 ng/ml TNFa, 50 nM NPD1, 24 hours
[17] = 200 uM H2O2 + 10 ng/ml TNFa, 100 nM NPD1, 24 hours
[18] = 400 uM H2O2 + 10 ng/ml TNFa, 50 nM NPD1, 24 hours
[19] = 400 uM H2O2 + 10 ng/ml TNFa, 100 nM NPD1, 24 hours
[20] = 800 uM H2O2 + 10 ng/ml TNFa, 50 nM NPD1, 24 hours
[21] = 800 uM H2O2 + 10 ng/ml TNFa, 100 nM NPD1, 24 hours
[22] = Mus musculus, C8-D1A, read-out: % cell viability

CC/C=C\C[C@H](O)\C=C/C=C/C=C/[C@H](O)C/C=C\C/C=C\CCC(=O)[O-].[Na+] [NPD1, Sodium 4Z,7Z,10R,11E,13E,15Z,17S, 19Z)-10,17-dihydroxydocosa-4,7,11,13,15,19-hexaenoate]
cell viability (in words) (NSC34 cells; 100 nM NPD1, 24 hours with H2O2 and 10 ng/ml TNFα): increased cell viability
viability at 0.1 µM (NSC34 cells; Mus musculus, NSC-34, read-out: % cell viability): 78%
% Cell Viability (NSC34 cells; [2]): 105.1%
Avg Abs 450 nm (NSC34 cells; [2]): 0.7104
% Cell Viability (NSC34 cells; [3]): 95.6%
Avg Abs 450 nm (NSC34 cells; [3]): 0.645
% Cell Viability (NSC34 cells; NPD 100 nM + TNFa 10 ng/ml + H2O2 10 uM, 24 hrs, listed as NPD): 95.45%
% Cell Viability (NSC34 cells; [4]): 74.46%
Avg Abs 450 nm (NSC34 cells; [4]): 0.5031
% Cell Viability (NSC34 cells; [5]): 78.22%
Avg Abs 450 nm (NSC34 cells; [5]): 0.5285
% Cell Viability (NSC34 cells; [6]): 78.26%
Avg Abs 450 nm (NSC34 cells; [6]): 0.5288
% Cell Viability (NSC34 cells; [7]): 81.41%
Avg Abs 450 nm (NSC34 cells; [7]): 0.5501
Avg Abs 450 nm (NSC34 cells; NPD 100 nM alone, 24 hrs incub.): 0.6462
Percent saved with NPD1 (14/36) (NSC34 cells; NPD1 100 nM vs TNFa + H2O2 alone): 39%
cell viability (in words) (NSC34 cells; NPD1 added to cells treated with 50-800 μM H2O2 and 10 ng/ml TNFα): increases in cell viability
% cells apoptosed (NSC34 cells; TNFa + H2O2 + NPD1 100 nM (TNFa + H2O2 alone: 36)): 22%
viability at 24 h, 100 nM [1]: 95.6%
absorbance after subtraction of background signal, avg (C8-D1A cells; [8]): 0.586 and 0.5861
absorbance after subtraction of background signal, replicates 1-3 (C8-D1A cells; [8]): 0.561 and 0.632 and 0.565
raw absorbance Avg. (C8-D1A cells; [8]): 1.03
raw absorbance, replicates 1-3 (C8-D1A cells; [8]): 1.0047 and 1.0764 and 1.0093
absorbance after subtraction of background signal, avg (C8-D1A cells; [9]): 0.593 and 0.5931
absorbance after subtraction of background signal, replicates 1-3 (C8-D1A cells; [9]): 0.565 and 0.587 and 0.627
raw absorbance Avg. (C8-D1A cells; [9]): 1.037
raw absorbance, replicates 1-3 (C8-D1A cells; [9]): 1.0312 and 1.071 and 1.009
astrocyte cell survival and viability (in words) (C8-D1A cells; 50 nM or 100 nM NPD1, H2O2 + 10 ng/ml TNFα, 24 hours): increased cell survival and viability in a dose-dependent manner; also recorded: increased astrocyte viability and reduced astrocyte death
absorbance after subtraction of background signal, avg (C8-D1A cells; [10]): 0.560 and 0.5597
absorbance after subtraction of background signal, replicates 1-3 (C8-D1A cells; [10]): 0.551 and 0.541 and 0.588
raw absorbance Avg. (C8-D1A cells; [10]): 1.004
raw absorbance, replicates 1-3 (C8-D1A cells; [10]): 0.9946 and 0.985 and 1.0316
absorbance after subtraction of background signal, avg (C8-D1A cells; [11]): 0.555 and 0.5549
absorbance after subtraction of background signal, replicates 1-3 (C8-D1A cells; [11]): 0.563 and 0.524 and 0.578
raw absorbance Avg. (C8-D1A cells; [11]): 0.9989
raw absorbance, replicates 1-3 (C8-D1A cells; [11]): 0.9676 and 1.0219 and 1.0073
absorbance after subtraction of background signal, avg (C8-D1A cells; [12]): 0.392 and 0.3915
absorbance after subtraction of background signal, replicates 1-3 (C8-D1A cells; [12]): 0.416 and 0.399 and 0.360
raw absorbance Avg. (C8-D1A cells; [12]): 0.8355
raw absorbance, replicates 1-3 (C8-D1A cells; [12]): 0.8604 and 0.8427 and 0.8035
absorbance after subtraction of background signal, avg (C8-D1A cells; [13]): 0.412 and 0.4123
absorbance after subtraction of background signal, replicates 1-3 (C8-D1A cells; [13]): 0.434 and 0.390 and 0.414
raw absorbance Avg. (C8-D1A cells; [13]): 0.8563
raw absorbance, replicates 1-3 (C8-D1A cells; [13]): 0.8335 and 0.8579 and 0.8776
absorbance after subtraction of background signal, avg (C8-D1A cells; [14]): 0.070 and 0.07003
absorbance after subtraction of background signal, replicates 1-3 (C8-D1A cells; [14]): 0.029 and 0.072 and 0.109
raw absorbance Avg. (C8-D1A cells; [14]): 0.514
raw absorbance, replicates 1-3 (C8-D1A cells; [14]): 0.4731 and 0.5164 and 0.5526
absorbance after subtraction of background signal, avg (C8-D1A cells; [15]): 0.128 and 0.1278
absorbance after subtraction of background signal, replicates 1-3 (C8-D1A cells; [15]): 0.125 and 0.138 and 0.120
raw absorbance Avg. (C8-D1A cells; [15]): 0.5718
raw absorbance, replicates 1-3 (C8-D1A cells; [15]): 0.5823 and 0.5639 and 0.5691
absorbance after subtraction of background signal, replicates 1-3 (C8-D1A cells; [16]): −0.021 and −0.023 and −0.022
raw absorbance Avg. (C8-D1A cells; [16]): 0.4217
raw absorbance, replicates 1-3 (C8-D1A cells; [16]): 0.4228 and 0.4206 and 0.4217
absorbance after subtraction of background signal, replicates 1-3 (C8-D1A cells; [17]): −0.027 and −0.023 and −0.015
raw absorbance Avg. (C8-D1A cells; [17]): 0.4222
raw absorbance, replicates 1-3 (C8-D1A cells; [17]): 0.4209 and 0.429 and 0.4166
absorbance after subtraction of background signal, replicates 1-3 (C8-D1A cells; [18]): −0.018 and −0.017 and −0.014
raw absorbance Avg. (C8-D1A cells; [18]): 0.4274
raw absorbance, replicates 1-3 (C8-D1A cells; [18]): 0.4258 and 0.4267 and 0.4296
absorbance after subtraction of background signal, replicates 1-3 (C8-D1A cells; [19]): −0.015 and −0.016 and −0.013
raw absorbance Avg. (C8-D1A cells; [19]): 0.4291
raw absorbance, replicates 1-3 (C8-D1A cells; [19]): 0.4277 and 0.4307 and 0.4289
absorbance after subtraction of background signal, replicates 1-3 (C8-D1A cells; [20]): −0.001 and −0.006 and 0.000
raw absorbance Avg. (C8-D1A cells; [20]): 0.4415
raw absorbance, replicates 1-3 (C8-D1A cells; [20]): 0.4431 and 0.4376 and 0.4439
absorbance after subtraction of background signal, avg (C8-D1A cells; [21]): 0.005 and 0.004833
absorbance after subtraction of background signal, replicates 1-3 (C8-D1A cells; [21]): 0.002 and 0.004 and 0.008
raw absorbance Avg. (C8-D1A cells; [21]): 0.4488
raw absorbance, replicates 1-3 (C8-D1A cells; [21]): 0.4484 and 0.4523 and 0.4458
viability at 0.05 µM (C8-D1A cells; [22]): 12%
viability at 0.1 µM (C8-D1A cells; [22]): 23%
% cells apoptosed (C8-D1A cells; TNFa + H2O2 + NPD1 50 nM (TNFa + H2O2 alone: 99)): 88%
% cells apoptosed (C8-D1A cells; TNFa + H2O2 + NPD1 100 nM (TNFa + H2O2 alone: 99)): 77%

Reference: patent US9340483B2, “Methods of treating amyotrophic lateral sclerosis” (Anida Pharma Inc., priority 2012, dated 2016)
